Assay results as given in ChEMBL document CHEMBL4196128 (ACS Med Chem Lett, 2018).
pIC50: −log10 of the molar value.

What was measured:
[1] = target: Mitogen-activated protein kinase 3 (Homo sapiens, UniProt P27361); experiment: Inhibition of ERK1 (unknown origin) using peptide substrate measured after 45 mins by IMAP assay
[2] = target: Mitogen-activated protein kinase 1 (Homo sapiens, UniProt P28482); experiment: Inhibition of ERK2 (unknown origin) using peptide substrate measured after 45 mins by IMAP assay
Sequence of Mitogen-activated protein kinase 1 (P28482 whole entry): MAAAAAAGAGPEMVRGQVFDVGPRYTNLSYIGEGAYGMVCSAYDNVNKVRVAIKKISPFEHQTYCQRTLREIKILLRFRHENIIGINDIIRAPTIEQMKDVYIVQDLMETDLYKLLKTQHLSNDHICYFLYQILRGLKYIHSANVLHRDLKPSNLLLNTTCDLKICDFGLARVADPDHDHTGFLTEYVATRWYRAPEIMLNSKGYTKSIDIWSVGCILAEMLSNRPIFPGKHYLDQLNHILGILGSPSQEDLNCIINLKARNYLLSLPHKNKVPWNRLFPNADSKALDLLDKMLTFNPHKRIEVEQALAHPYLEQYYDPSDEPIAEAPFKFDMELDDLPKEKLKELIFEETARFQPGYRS

HT-29 = experiment: Antiproliferative activity against human HT-29 cells harboring BRAF V600E/D mutant measured after 4 days; format: functional, cell-based; details: HT-29, 96 h
COLO 205 = experiment: Antiproliferative activity against human COLO205 cells harboring BRAF V600E/D mutant measured after 4 days; format: functional, cell-based; details: COLO 205, 96 h
hERG (KCNH2) [3] = target: T1, hERG (KCNH2) (Homo sapiens, UniProt Q12809); experiment: Inhibition of human ERG at 1.5 mg/ml by binding assay relative to control; set-up: dose or concentration left out as unconfirmed
T1 sequence (Q12809 whole entry): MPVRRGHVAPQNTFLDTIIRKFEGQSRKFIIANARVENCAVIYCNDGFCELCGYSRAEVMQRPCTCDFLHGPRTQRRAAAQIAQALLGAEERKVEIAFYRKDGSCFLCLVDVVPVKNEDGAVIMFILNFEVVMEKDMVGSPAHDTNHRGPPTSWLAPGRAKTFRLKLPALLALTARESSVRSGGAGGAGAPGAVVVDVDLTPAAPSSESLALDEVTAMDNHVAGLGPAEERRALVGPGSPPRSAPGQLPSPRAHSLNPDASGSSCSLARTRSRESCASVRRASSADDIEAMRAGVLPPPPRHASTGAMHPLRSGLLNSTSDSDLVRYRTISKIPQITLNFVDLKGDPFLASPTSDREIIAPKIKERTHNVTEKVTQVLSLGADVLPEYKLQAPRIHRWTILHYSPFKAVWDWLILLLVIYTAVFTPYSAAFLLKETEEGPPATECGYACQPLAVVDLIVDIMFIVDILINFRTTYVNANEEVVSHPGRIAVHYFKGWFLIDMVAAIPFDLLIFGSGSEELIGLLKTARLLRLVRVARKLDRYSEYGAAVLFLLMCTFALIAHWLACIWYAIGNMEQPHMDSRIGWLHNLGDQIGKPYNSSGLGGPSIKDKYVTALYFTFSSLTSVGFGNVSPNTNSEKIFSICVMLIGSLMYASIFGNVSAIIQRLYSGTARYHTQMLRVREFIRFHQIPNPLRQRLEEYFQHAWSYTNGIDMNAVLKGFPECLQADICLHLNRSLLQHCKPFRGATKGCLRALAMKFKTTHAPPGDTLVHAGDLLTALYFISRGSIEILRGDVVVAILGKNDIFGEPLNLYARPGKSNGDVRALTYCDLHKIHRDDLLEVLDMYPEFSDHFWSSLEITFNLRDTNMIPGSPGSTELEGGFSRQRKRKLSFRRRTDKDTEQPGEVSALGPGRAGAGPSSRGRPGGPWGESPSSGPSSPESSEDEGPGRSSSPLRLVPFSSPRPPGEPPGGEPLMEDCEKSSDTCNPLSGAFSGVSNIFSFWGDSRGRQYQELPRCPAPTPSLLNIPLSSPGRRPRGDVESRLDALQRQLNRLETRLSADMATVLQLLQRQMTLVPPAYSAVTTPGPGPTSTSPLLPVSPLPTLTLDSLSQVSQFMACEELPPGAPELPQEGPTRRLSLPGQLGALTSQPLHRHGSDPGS

hERG (KCNH2) [4] = target: T1, hERG (KCNH2); experiment: Inhibition of human ERG at 5 mg/ml by binding assay relative to control; set-up: dose or concentration left out as unconfirmed
[5] = Plasma clearance in rat; format: ADME, organism-based
[6] = Half life in rat; format: ADME, organism-based; details: in vivo
[7] = Mean residence time in rat; format: ADME, organism-based; details: in vivo
hERG (KCNH2) [8] = target: T1, hERG (KCNH2); experiment: Inhibition of human ERG at 1 uM by IonWork assay relative to control
hERG (KCNH2) [9] = target: T1, hERG (KCNH2); experiment: Inhibition of human ERG at 10 uM by IonWork assay relative to control
[10] = Drug metabolism in bile duct-cannulated rat bile assessed as oxidative dealkylation by measuring loss of isopropyl group at 10 mg/kg, iv by LC/ESI-MS/MS analysis; format: ADME, organism-based; details: in vivo
[11] = Drug metabolism in bile duct-cannulated rat bile assessed as oxidative dealkylation by measuring amide cleavage at 10 mg/kg, iv by LC/ESI-MS/MS analysis; format: ADME, organism-based; details: in vivo
[12] = Drug metabolism in bile duct-cannulated rat bile assessed as oxidation at 10 mg/kg, iv by LC/ESI-MS/MS analysis; format: ADME, organism-based; details: in vivo
[13] = Drug metabolism in bile duct-cannulated rat bile assessed as conjugation at 10 mg/kg, iv by LC/ESI-MS/MS analysis; format: ADME, organism-based; details: in vivo
[14] = Drug metabolism in bile duct-cannulated rat urine assessed as oxidative dealkylation by measuring loss of isopropyl group at 10 mg/kg, iv by LC/ESI-MS/MS analysis; format: ADME, organism-based; details: in vivo
[15] = Drug metabolism in bile duct-cannulated rat urine assessed as oxidative dealkylation by measuring amide cleavage at 10 mg/kg, iv by LC/ESI-MS/MS analysis; format: ADME, organism-based; details: in vivo
[16] = Drug metabolism in bile duct-cannulated rat urine assessed as oxidation at 10 mg/kg, iv by LC/ESI-MS/MS analysis; format: ADME, organism-based; details: in vivo
[17] = Drug metabolism in bile duct-cannulated rat urine assessed as conjugation at 10 mg/kg, iv by LC/ESI-MS/MS analysis; format: ADME, organism-based; details: in vivo
[18] = Drug metabolism in bile duct-cannulated rat plasma assessed as oxidative dealkylation by measuring loss of isopropyl group at 10 mg/kg, iv by LC/ESI-MS/MS analysis; format: ADME, organism-based; details: in vivo
[19] = Drug metabolism in bile duct-cannulated rat plasma assessed as oxidative dealkylation by measuring amide cleavage at 10 mg/kg, iv by LC/ESI-MS/MS analysis; format: ADME, organism-based; details: in vivo
[20] = Drug metabolism in bile duct-cannulated rat plasma assessed as oxidation at 10 mg/kg, iv by LC/ESI-MS/MS analysis; format: ADME, organism-based; details: in vivo
[21] = Drug metabolism in bile duct-cannulated rat plasma assessed as conjugation at 10 mg/kg, iv by LC/ESI-MS/MS analysis; format: ADME, organism-based; details: in vivo
[22] = Drug metabolism in bile duct-cannulated rat urine assessed as glutathione conjugation at 10 mg/kg, iv by LC/ESI-MS/MS analysis; format: ADME, organism-based; details: in vivo
[23] = Drug metabolism in bile duct-cannulated rat plasma assessed as glutathione conjugation at 10 mg/kg, iv by LC/ESI-MS/MS analysis; format: ADME, organism-based; details: in vivo
[24] = Clearance in human hepatocytes assessed per million cells; format: ADME, cell-based, Hepatocyte
[25] = Clearance in dog hepatocytes assessed per million cells; format: ADME, cell-based, Canis lupus familiaris, Hepatocyte
[26] = AUC in rat at 10 mg/kg; format: ADME, organism-based; details: in vivo
[27] = AUC in dog at 10 mg/kg; format: ADME, organism-based, Canis lupus familiaris; details: in vivo
Cytochrome P450 3A4 = Cytochrome P450 3A4 (Homo sapiens, UniProt P08684); experiment: Inhibition of CYP3A4 (unknown origin) preincubated followed by substrate addition; format: ADME
Sequence of Cytochrome P450 3A4 (P08684 whole entry): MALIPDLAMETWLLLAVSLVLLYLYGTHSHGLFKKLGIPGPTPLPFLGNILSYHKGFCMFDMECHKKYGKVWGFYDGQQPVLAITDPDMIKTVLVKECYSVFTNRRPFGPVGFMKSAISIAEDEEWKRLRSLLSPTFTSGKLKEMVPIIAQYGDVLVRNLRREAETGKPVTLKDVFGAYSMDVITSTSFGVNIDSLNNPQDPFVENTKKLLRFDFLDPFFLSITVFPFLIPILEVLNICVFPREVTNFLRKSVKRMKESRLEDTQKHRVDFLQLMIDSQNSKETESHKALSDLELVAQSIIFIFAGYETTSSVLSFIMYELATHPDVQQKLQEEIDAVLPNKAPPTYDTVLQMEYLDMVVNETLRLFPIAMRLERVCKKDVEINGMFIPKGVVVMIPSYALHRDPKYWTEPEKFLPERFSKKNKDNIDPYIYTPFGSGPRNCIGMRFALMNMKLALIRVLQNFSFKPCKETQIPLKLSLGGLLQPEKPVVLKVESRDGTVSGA

Sequence of Mitogen-activated protein kinase 3 (P27361 whole entry): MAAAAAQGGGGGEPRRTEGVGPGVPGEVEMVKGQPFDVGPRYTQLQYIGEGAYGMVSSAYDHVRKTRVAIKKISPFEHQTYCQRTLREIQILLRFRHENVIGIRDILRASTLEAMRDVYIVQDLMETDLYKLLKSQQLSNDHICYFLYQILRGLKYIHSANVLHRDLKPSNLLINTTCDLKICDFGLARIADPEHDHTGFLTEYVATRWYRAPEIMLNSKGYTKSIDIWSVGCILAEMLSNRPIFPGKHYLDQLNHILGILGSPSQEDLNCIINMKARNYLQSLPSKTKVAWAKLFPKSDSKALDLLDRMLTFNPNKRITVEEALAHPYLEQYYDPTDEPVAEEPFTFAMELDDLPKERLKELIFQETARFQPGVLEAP

pIC50 [1]	pIC50 [2]	pIC50 (HT-29)	pIC50 (COLO 205)	SMILES	inhibition (hERG (KCNH2) [3])	inhibition (hERG (KCNH2) [4])	also measured
7.37	7.64	6.61	7.12	CS[C@@]1(C(=O)Nc2ccc3[nH]nc(-c4ccc(F)cc4)c3c2)CCN(CC(=O)N2CCC(c3ccc(-c4ncccn4)cc3)CC2)C1	22%	12%	
7.77	8.30	7.31	7.66	CCNc1nnc(-c2ccc(C3=CCN(C(=O)CN4CC[C@@](SC)(C(=O)Nc5ccc6[nH]nc(-c7ccc(F)cc7)c6c5)C4)CC3)cc2)o1	-3%	6%	
7.47	8.22	6.88	7.52	CCNc1ncc(-c2ccc(C3=CCN(C(=O)CN4CC[C@@](SC)(C(=O)Nc5ccc6[nH]nc(-c7ccnc(C)c7)c6c5)C4)CC3)cc2)s1	-7%	-3%	
7.60		7.06	7.33	CS[C@@]1(C(=O)Nc2ccc3[nH]nc(-c4ccc(F)cc4)c3c2)CCN(CC(=O)N2CCN(c3ccc(-c4ncccn4)cc3)CC2)C1	3%	47%	
6.87	7.60	6.68	7.08	CS[C@@]1(C(=O)Nc2ccc3[nH]nc(-c4ccc(F)cc4)c3c2)CCN(CC(=O)N2CC=C(c3ccc(-c4ncccn4)cc3F)CC2)C1	11%	32%	
8.10		7.23	7.80	O=C(Nc1ccc2[nH]nc(-c3ccncc3)c2c1)[C@@H]1CCN(CC(=O)N2CCN(c3ccc(-c4ncccn4)cc3)CC2)C1			clearance [5]: 122 mL/min/kg; half-life [6]: 90 min; MRT [7]: 1.6 h
6.18	6.94			CS[C@@]1(C(=O)Nc2ccc3[nH]nc(-c4ccc(F)cc4)c3c2)CCN(CC(=O)N2CCN(c3ccc(-c4ncccn4)cc3F)CC2)C1			
8.10	8.77	7.10	8.00	COc1cc(-c2n[nH]c3ccc(NC(=O)[C@]4(SC)CCN(CC(=O)N5CC=C(c6ccc(-c7ncn(C)n7)cc6)CC5)C4)cc23)ccn1			inhibition at 1 µM (hERG (KCNH2) [8]): 0.8%; inhibition at 10 µM (hERG (KCNH2) [9]): 7.2%
				[3H]c1cc(OC(C)C)nc([3H])c1-c1n[nH]c2ccc(NC(=O)[C@]3(SC)CCN(CC(=O)N4CC=C(c5ccc(-c6ncn(C)n6)cc5)CC4)C3)cc12			Drug metabolism [10]: Metabolite_Detected; Drug metabolism [11]: Metabolite_Detected; Drug metabolism [12]: Metabolite_Detected; Drug metabolism [13]: Metabolite_Detected; Drug metabolism [14]: Metabolite_Detected; Drug metabolism [15]: Metabolite_Detected; Drug metabolism [16]: Metabolite_Detected; Drug metabolism [17]: Metabolite_Detected; Drug metabolism [18]: Metabolite_Detected; Drug metabolism [19]: Metabolite_Detected; Drug metabolism [20]: Metabolite_Detected; Drug metabolism [21]: Metabolite_Detected; Drug metabolism [22]: Metabolite_Notdetected; Drug metabolism [23]: Metabolite_Notdetected
7.03	7.89	7.10	7.24	CS[C@@]1(C(=O)Nc2ccc3[nH]nc(-c4ccc(OC(C)C)nc4)c3c2)CCN(CC(=O)N2CC=C(c3ccc(-c4ncccn4)cc3)CC2)C1	25%	37%	
7.72	8.30	7.22	7.47	COc1cc(-c2n[nH]c3ccc(NC(=O)[C@]4(SC)CCN(CC(=O)N5CC=C(c6ccc(-c7ncccn7)cc6)CC5)C4)cc23)ccn1	2%	15%	inhibition at 1 µM (hERG (KCNH2) [8]): 7%; inhibition at 10 µM (hERG (KCNH2) [9]): 19%
6.68	7.44	6.27	< 6.95	CS[C@@]1(C(=O)Nc2ccc3[nH]nc(-c4ccc(F)cc4)c3c2)CCN(CC(=O)N2CC=C(c3ncc(-c4ncccn4)s3)CC2)C1	-5%	10%	
	6.14		< 6.00	CS[C@]1(C(=O)Nc2ccc3[nH]nc(-c4ccc(OC(C)C)nc4)c3c2)CCN(CC(=O)N2CC=C(c3ccc(-c4ncn(C)n4)cc3)CC2)C1			inhibition at 1 µM (hERG (KCNH2) [8]): 6%; inhibition at 10 µM (hERG (KCNH2) [9]): 10%
6.64	7.54	6.61	7.07	CC(C)Oc1ccc(-c2n[nH]c3ccc(NC(=O)[C@]4(S(C)(=O)=O)CCN(CC(=O)N5CC=C(c6ccc(-c7ncn(C)n7)cc6)CC5)C4)cc23)cn1			inhibition at 1 µM (hERG (KCNH2) [8]): 4%; inhibition at 10 µM (hERG (KCNH2) [9]): 5%
7.39		6.93	7.35	CS[C@@]1(C(=O)Nc2ccc3[nH]nc(-c4ccc(F)cc4)c3c2)CCN(CC(=O)N2CC=C(c3ccc(-c4ncccn4)cc3)CC2)C1			CLH [24]: 18 µL/min; CLH [25]: 7 µL/min; AUC [26]: 25.9 to 26 µM·h; AUC [27]: 17 µM·h
7.13	7.57	7.00	7.39	CS[C@@]1(C(=O)Nc2ccc3[nH]nc(-c4ccnc(OC(C)C)c4)c3c2)CCN(CC(=O)N2CC=C(c3ccc(-c4ncn(C)n4)cc3)CC2)C1	3%	10%	
6.02	6.54			CS[C@@]1(C(=O)Nc2ccc3[nH]nc(-c4ccc(F)cc4)c3c2)CCN(CC(=O)N2CC=C(c3nc(-c4ncccn4)cs3)CC2)C1	6%	19%	
7.35	7.89	7.11	7.54	CS[C@@]1(C(=O)Nc2ccc3[nH]nc(-c4ccc5c(c4)OCO5)c3c2)CCN(CC(=O)N2CC=C(c3ccc(-c4ncccn4)cc3)CC2)C1	19%	16%	pIC50 (Cytochrome P450 3A4): 6.52; AUC [26]: 106 µM·h
